According to patent US7754896B2, “Indol-alanine derivatives as selective S1P4-agonists” (Novartis AG, priority 2004, dated 2010):
pEC50: −log10 of the molar value.

Legend:
CHO = assay: Calcium mobilization assay, parental CHO cells; type: cell-based; settings: Cricetulus griseus
Experimental: CHO cells are plated in black Costar plate (96 or 384 well, 50,000 cells or 12,500 cells, respectively) in a MEM with FCS and cultured for 20-24 h at 37° C. in a CO2 incubator. After the removal of the culture medium cells are incubated in HBSS medium containing 2 μM Fluo4AM (Molecular Probes, Cat. No, F-1241; 1 mg/ml stock in DMSO), 5 mM probenicid for 1 h at 37° C., rinsed with HBSS buffer, 2.5 mM probenicid and overlaid with the same medium (75 μl for 96-well plates, 50 μl for 384 plates). The plates are transferred to the FLIPR. After measuring the baseline for 40 sec, the agonist in HBSS is added and the fluorescence is measured at intervals of 2 sec for 3 to 5 min. In some cases the cells are pre-treated for 5 h with 50 ng/ml pertussis toxin (Sigma, Cat Nr P2980). […]
(§1) The compounds mentioned in this application are tested for specificity, e.g. the activity they have in the parental cell line prior transformation with the S1P4 cDNA and for selectivity on CHO cells lines transformed with the S1P1, S1P2, S1P3, and S1P5. […] For example, S1P4 specific and selective compounds may have an EC50 (apparent EC50) measured at S1P4 that is 10×, preferably 100× lower that that measured in wild type CHO cells or In cell expressing any of the other four S1P receptors.

S1P1 = biological target: T1, S1P1 (Homo sapiens, UniProt P21453); assay: Calcium mobilization assay, CHO cells expressing S1P1; type: cell-based
T1 construct: expressed in transfected cells
T1 sequence (P21453 whole entry): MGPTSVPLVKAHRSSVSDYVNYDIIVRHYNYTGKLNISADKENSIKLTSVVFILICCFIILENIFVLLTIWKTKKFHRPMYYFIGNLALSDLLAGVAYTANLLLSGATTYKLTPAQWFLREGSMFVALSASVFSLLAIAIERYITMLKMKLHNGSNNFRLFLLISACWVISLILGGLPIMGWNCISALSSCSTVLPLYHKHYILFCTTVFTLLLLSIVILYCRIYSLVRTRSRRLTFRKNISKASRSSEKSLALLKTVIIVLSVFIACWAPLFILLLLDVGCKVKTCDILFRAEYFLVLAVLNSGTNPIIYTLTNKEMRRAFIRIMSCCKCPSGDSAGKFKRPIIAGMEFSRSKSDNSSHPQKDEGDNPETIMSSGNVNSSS
Text: (§2) Human S1P1 (GenBank™ accession number M31210) and S1P3 (GenBank™ accession number X83864) cDNA containing the myc sequence in front to the human S1P1 and S1P3 sequences are inserted in the pcDNA 3.1 vector. The vectors are sequenced to completion to confirm the correctness of the construct. The human S1P2 (GI: 4090955, TREMBL: 0195136) is cloned by a PCR based method. Lung cDNA (marathon cDNA) is obtained (BD Biosciences Chontech, Palo Alto, Calif. 94303, USA). […] The amplified product of around 1100 bp is analyzed by standard agarose gel-electrophoresis. […]
CHO cells are plated in black Costar plate (96 or 384 well, 50,000 cells or 12,500 cells, respectively) in a MEM with FCS and cultured for 20-24 h at 37° C. in a CO2 incubator. […] After measuring the baseline for 40 sec, the agonist in HBSS is added and the fluorescence is measured at intervals of 2 sec for 3 to 5 min. […]
as §1

S1P3 = biological target: T2, S1P3 (Homo sapiens, UniProt Q99500); assay: GTPγS binding assay, S1P3; type: biochemical; settings: CHO cells expressing S1P3
T2 construct: expressed in transfected cells
T2 sequence (Q99500 whole entry): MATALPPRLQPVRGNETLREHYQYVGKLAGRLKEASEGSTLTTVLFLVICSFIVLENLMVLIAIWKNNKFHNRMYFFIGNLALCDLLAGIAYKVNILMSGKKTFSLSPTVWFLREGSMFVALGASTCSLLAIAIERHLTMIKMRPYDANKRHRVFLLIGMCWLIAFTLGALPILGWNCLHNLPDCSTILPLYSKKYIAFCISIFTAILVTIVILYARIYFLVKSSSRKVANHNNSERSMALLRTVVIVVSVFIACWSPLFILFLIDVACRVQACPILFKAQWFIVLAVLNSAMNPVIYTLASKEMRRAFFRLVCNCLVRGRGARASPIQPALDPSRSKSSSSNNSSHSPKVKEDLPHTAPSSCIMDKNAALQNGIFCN
Text: as §2, with “USA). Following oligonucleotides are used for the PCR reaction: forward primer CACCATGGGCAGCTTGTACTCGGAGTACCT GM CCC CAA CM GGT CCA G (1 to 45, GenBank™ accession number AF034780) and reverse primer 5′-GATTCAGACCACCGTGTTGCCCTCCAG (1062 to 1039, GenBank™ accession number AF034780), the initiation of the translation (ATG) and the stop codon are underlined.” for “USA).”
(§3) Membrane proteins are prepared from wild type CHO-K1 and the CHO cell clones expressing human S1P4. […] The protein concentration is determined using the Bio Rad Protein Assay and human IgG as standard. […]

S1P2 = biological target: T3, S1P2 (Homo sapiens, UniProt O95136); assay: GTPγS binding assay, S1P2; type: biochemical; settings: CHO cells expressing S1P2
T3 construct: expressed in transfected cells
T3 sequence (O95136 whole entry): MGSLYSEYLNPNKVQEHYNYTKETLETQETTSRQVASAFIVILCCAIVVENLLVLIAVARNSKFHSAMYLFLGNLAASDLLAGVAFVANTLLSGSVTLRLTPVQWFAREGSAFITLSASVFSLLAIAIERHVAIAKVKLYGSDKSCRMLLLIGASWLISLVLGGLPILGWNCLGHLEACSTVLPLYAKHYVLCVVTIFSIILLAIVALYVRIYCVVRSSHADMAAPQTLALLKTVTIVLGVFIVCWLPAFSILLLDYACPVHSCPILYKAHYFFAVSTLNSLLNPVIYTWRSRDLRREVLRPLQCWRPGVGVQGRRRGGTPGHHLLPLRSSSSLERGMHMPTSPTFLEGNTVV
Text: as §2, with “USA). Following oligonucleotides are used for the PCR reaction: forward primer CACCATGGGCAGCTTGTACTCGGAGTACCT GM CCC CAA CM GGT CCA G (1 to 45, GenBank™ accession number AF034780) and reverse primer 5′-GATTCAGACCACCGTGTTGCCCTCCAG (1062 to 1039, GenBank™ accession number AF034780), the initiation of the translation (ATG) and the stop codon are underlined.” for “USA).”
as §3

## NC(CNC(=O)c1cc2c(-c3ccccc3Cc3ccccc3)cccc2[nH]1)C(=O)O (stereo not shown) [Example 2]
CHO
  pEC50: < 5.22
S1P1
  pEC50: < 5.22
S1P3
  pEC50: < 5.00
S1P2
  pEC50: < 5.00
